Drawing on US5332726A, “Antithrombotic peptides and pseudopeptides” (Rhone-Poulenc Rorer Pharmaceuticals Inc., priority 1992, dated 1994), this text covers IC50 and inhibition for 33 compounds.

Non-standard residues stand in square brackets, D forms with d. Residues, ends and D or L forms follow the SMILES beside them. NMeD = CN[C@@H](CC(=O)O)C(=O)O; Orn = NCCC[C@H](N)C(=O)O

Assay [1] concerns the target fixed activated platelets (Homo sapiens, UniProt P05106+P08514). In words: Platelet Aggregation Assay (fibrinogen-mediated aggregation of fixed-activated platelets). It counts as cell-based. Conditions: for IC50: fixed activated platelets, human fibrinogen 250 μg/ml, read-out: Inhibition of Fibrinogen Mediated Platelet Aggregation IC50; for inhibition at 25 µM: read-out: Inhibition of Fibrinogen Mediated Platelet Aggregation % inhibition at 25 μM; for inhibition at 100 µM: read-out: Inhibition of Fibrinogen Mediated Platelet Aggregation % inhibition at 100 μM. How it is done:
PLATELET AGGREGATION ASSAY
Preparation of Fixed-Activated Platelets
To the activated platelets is added paraformaldehyde to a final concentration of 0.50% and this incubated at room temperature for 30 minutes. The fixed activated platelets are then collected by centrifugation at 650×g for 15 minutes.
Platelet Aggregation Assay
The fixed activated platelets are incubated with a selected dose of the compound to be tested for platelet aggregation inhibition for one minute and aggregation initiated by addition of human fibrinogen to a final concentration of 250 μg/ml. A platelet aggregation profiler Model PAP-4 is used to record the platelet aggregation.

The target of assay [2] is thrombin-stimulated platelets (Homo sapiens, UniProt P05106+P08514). In words: Fibrinogen-Binding Assay (125I-fibrinogen binding to platelets). Particulars: 125I-fibrinogen 0.176 μmol/liter, thrombin-stimulated platelets; read-out: Inhibition of 125I-Fibrinogen Binding to Platelets IC50. How it is done:
Platelets are washed free of plasma constituents by the albumin density-gradient technique of Walsh, P. N., et al., Br. J. Haematol. […] After these additions, the final platelet count in the mixture is 1×10^11 /liter. After incubation for an additional 30 minutes at 22°-25° C., bound and free ligand are separated by centrifuging 50 μl of the mixture through 300 μl of 20% sucrose at 12,000×g for 4 minutes. The platelet pellet is then separated from the rest of the mixture to determine platelet-bound radioactivity. Nonspecific binding is measured in mixtures containing an excess of unlabeled ligand. […] The IC50 is derived by plotting residual fibrinogen binding against the logarithm of the sample compound's concentration.

fixed activated platelets, sequence (P08514 32-1039): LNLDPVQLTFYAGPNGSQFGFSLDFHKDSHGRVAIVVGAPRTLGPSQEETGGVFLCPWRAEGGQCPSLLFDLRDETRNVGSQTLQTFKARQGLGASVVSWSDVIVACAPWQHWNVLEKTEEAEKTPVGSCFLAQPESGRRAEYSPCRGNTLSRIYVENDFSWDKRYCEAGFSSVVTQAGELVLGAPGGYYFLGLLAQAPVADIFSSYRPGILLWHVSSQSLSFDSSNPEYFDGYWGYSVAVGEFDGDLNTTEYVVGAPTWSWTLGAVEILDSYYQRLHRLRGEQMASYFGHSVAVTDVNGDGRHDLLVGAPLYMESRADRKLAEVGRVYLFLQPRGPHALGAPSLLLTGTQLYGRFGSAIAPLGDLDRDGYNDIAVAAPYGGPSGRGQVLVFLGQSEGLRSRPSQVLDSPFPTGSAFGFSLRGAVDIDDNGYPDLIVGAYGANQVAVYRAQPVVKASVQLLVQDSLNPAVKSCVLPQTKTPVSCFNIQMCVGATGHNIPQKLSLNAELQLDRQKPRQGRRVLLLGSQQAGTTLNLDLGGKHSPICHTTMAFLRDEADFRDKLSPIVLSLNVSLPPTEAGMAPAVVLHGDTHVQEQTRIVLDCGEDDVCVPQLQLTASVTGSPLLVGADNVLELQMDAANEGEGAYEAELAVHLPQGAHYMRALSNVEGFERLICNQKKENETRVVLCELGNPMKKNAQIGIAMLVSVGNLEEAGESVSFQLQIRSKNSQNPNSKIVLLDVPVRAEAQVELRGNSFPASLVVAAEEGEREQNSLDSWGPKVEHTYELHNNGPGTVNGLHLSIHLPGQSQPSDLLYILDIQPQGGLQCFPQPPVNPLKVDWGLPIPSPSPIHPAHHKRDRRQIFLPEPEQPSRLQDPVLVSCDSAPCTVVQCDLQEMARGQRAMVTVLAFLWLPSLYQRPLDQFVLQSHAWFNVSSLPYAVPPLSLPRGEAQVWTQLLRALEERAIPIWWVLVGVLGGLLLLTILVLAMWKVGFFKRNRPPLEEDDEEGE
fixed activated platelets, sequence (P05106 27-788): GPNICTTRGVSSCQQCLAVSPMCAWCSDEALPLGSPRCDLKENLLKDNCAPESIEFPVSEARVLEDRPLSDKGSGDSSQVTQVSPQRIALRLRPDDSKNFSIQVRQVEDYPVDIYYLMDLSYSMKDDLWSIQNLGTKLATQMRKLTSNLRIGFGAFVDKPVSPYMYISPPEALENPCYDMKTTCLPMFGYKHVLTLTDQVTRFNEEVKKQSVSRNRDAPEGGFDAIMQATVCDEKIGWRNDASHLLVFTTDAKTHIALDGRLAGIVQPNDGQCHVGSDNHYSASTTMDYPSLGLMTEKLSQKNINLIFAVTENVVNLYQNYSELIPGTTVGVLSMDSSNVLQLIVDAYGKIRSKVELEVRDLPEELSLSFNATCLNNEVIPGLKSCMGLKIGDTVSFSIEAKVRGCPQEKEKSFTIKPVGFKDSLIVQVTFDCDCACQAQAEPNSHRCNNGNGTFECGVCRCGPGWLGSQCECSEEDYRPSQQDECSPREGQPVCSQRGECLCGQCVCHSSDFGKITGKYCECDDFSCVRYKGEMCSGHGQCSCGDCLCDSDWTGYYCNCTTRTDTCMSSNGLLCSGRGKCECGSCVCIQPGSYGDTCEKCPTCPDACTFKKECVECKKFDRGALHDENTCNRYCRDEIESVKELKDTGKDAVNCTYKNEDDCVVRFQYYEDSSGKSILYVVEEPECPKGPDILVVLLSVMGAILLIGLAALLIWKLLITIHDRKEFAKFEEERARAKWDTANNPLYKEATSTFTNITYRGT
thrombin-stimulated platelets, sequence (P08514 32-1039): as the sequence (P08514 32-1039) above
thrombin-stimulated platelets, sequence (P05106 27-788): as the sequence (P05106 27-788) above

For `CC(C)[C@H](NC(=O)[C@H](CC(=O)O)NC(=O)CCCCCCCCNC(=N)N)C(=O)O` [9-guanidinononanoyl-L-aspartyl-L-valine], the figures for the IC50 in assay [1] and in assay [2] were 1.7 µM and 0.2 µM, respectively. Further, the inhibition at 25 µM in assay [1] amounted to 96%.

Consider `N=C(N)NCCCCCCCCC(=O)N[C@@H](CC(=O)O)C(=O)N[C@@H](CCCNC(=N)N)C(=O)OC1CCCCC1` [9-Guanidinononanoyl-L-aspartyl-L-arginine-cyclohexylester], for which the IC50 is 0.82 µM in assay [1] and 0.26 µM in assay [2]. The inhibition at 25 µM in assay [1] came to 91%. For `CC(C)C[C@@H](CCC(=O)O)NC(=O)[C@H](CC(=O)O)NC(=O)CCCCCCCCNC(=N)N` [N-(9-guanidinononanoyl-L-aspartyl)-(R)-4-amino-4-isobutylbutyric acid], in that order: greater than 25 µM, 54 µM and 13%. On the same counts, the results for `COC(=O)[C@](CCCNC(=N)N)(Cc1ccccc1)NC(=O)[C@H](CC(=O)O)NC(=O)CCCCCCCCNC(=N)N` [9-Guanidinononanoyl-L-aspartyl-(S)-α-benzyl arginine methyl ester] are 13.3 µM, 20 µM and 69%.

Take `CC(C)[C@H](NC(=O)[C@H](CC(=O)O)NC(=O)CCCCCCn1ccnc1)C(=O)O` [7-(Imidazol-1-yl)heptanoyl-L-aspartyl-L-valine]: the IC50 in assay [1] was greater than 25 µM; in assay [2] it was 2 µM. The inhibition at 25 µM in assay [1] was determined as 35%. On the same counts, the results for `CC[C@@H](C)[C@@H](NC(=O)[C@H](CC(=O)O)NC(=O)CCCCCCCCNC(=N)N)C(=O)N[C@@H](CCCNC(=N)N)C(=O)O` [9-Guanidinononanoyl-L-aspartyl-D-isoleucyl-L-arginine] are 13.1 µM, 10.2 µM and 75%. For `CC(C)[C@H](NC(=O)[C@H](CC(=O)O)NC(=O)CCCCCCCCCn1ccnc1)C(=O)O` [10-(Imidazol-1-yl)decanoyl-L-aspartyl-L-valine], in that order: greater than 25 µM, 20 µM and 45%.

With `CC(C)[C@H](NC(=O)[C@@H](N)CCCNC(=O)[C@@H](N)CCCNC(=N)N)C(=O)O` [N-δ-(L-arginyl)-L-ornithyl-L-valine] (H-[Orn](Arg)-Val-OH), the inhibition at 100 µM in assay [1] was 20%. As to `N=C(N)NCCC[C@H](N)C(=O)NCC(=O)N[C@@H](CC(=O)O)C(=O)NCC(=O)O` [L-arginylglycyl-L-aspartyl glycine] (H-RGDG-OH), in assay [1], the half-maximal inhibitory concentration (IC50) turned out to be 14.3 µM and the inhibition at 100 µM was 91%. As for `CC(C)[C@H](NC(=O)[C@H](CC(=O)O)NC(=O)CCCCCCCNC(=N)N)c1nnn[nH]1` [8-Guanidinooctanoyl-L-aspartyl-L-valine-5-tetrazole], in assay [1], the IC50 is greater than 25 µM and the inhibition at 25 µM turned out to be 32%.

Consider `COC(=O)[C@](CCCNC(=N)N)(CC(C)C)NC(=O)[C@H](CC(=O)O)NC(=O)CCCCCCCCNC(=N)N` [9-Guanidinononanoyl-L-aspartyl-(S)-α-isobutyl-arginine methylester], for which, in assay [1], the 50% inhibitory concentration (IC50) was greater than 25 µM and the inhibition at 25 µM is 0%. On the same counts, the results for `CC[C@@H](C)[C@H](CC(=O)NCCCCNC(=N)N)NC(=O)[C@H](CC(=O)O)NC(=O)CCCCCCCCNC(=N)N` [9-Guanidinononanoyl-L-aspartyl-D-β-homoiso-leucyl-(des-carboxy)-L-arginine] are 3.3 µM and 94%. On to `CC[C@H](C)[C@@H](CN[C@@H](CCCNC(=N)N)C(=O)O)NC(=O)[C@H](CC(=O)O)NC(=O)CCCCCCCCNC(=N)N` [9-Guanidinononanoyl-L-aspartyl-β-homo-L-isoleucyl psi(CH2 NH)-L-arginine], for which, in assay [1], the inhibition at 25 µM came to 38%. Take `CC(C)C[C@H](NC(=O)[C@H](CC(=O)O)NC(=O)CCCCCCCCNC(=N)N)C(=O)N[C@@H](CCCNC(=N)N)C(=O)O` [9-Guanidinononanoyl-L-aspartyl-L-leucyl-L-arginine]: in assay [1], the half-maximal inhibitory concentration (IC50) came to 0.52 µM and the inhibition at 25 µM is 96%. On to `CC(C)C[C@@H](CCC(=O)N[C@@H](CCCNC(=N)N)C(=O)O)NC(=O)[C@H](CC(=O)O)NC(=O)CCCCCCCCNC(=N)N` [N-[N-(9-Guanidinononanoyl-L-aspartyl)-(R)-4-amino-4-isobutylbutyryl]-L-arginine], for which the IC50 in assay [2] was 2.1 µM. In the case of `C[C@H](NC(=O)[C@H](CC(=O)O)NC(=O)CCCCCCCCNC(=N)N)C(=O)N[C@@H](CCCNC(=N)N)C(=O)O` [9-Guanidinononanoyl-L-aspartyl-L-alanyl-L-arginine], in assay [1], the concentration for half-maximal inhibition (IC50) came to 0.54 µM and the inhibition at 25 µM worked out at 89%. Regarding `CCC(C)C[C@@H](NC(=O)[C@H](CC(=O)O)NC(=O)CCCCCCCCNC(=N)N)C(=O)N[C@@H](CCCNC(=N)N)C(=O)O` (stereo partly drawn) [9-Guanidinononanoyl-L-aspartyl-D-homoisoleucyl-L-arginine], in assay [1], the inhibition at 25 µM was 98%. Consider `CC(C)[C@H](NC(=O)[C@H](CC(=O)O)NC(=O)CCCCCCCCNC(=N)N)C(=O)N[C@@H](CCCNC(=N)N)C(=O)O` [9-Guanidinononanoyl-L-aspartyl-L-valine-L-arginine], for which, in assay [1], the 50% inhibitory concentration (IC50) worked out at 0.22 µM and the inhibition at 25 µM was determined as 98%. Regarding `CC(C)[C@H](NC(=O)[C@H](CC(=O)O)NC(=O)CCCCNC(=N)N)C(=O)O` [5-guanidinovaleroyl-L-aspartyl-L-valine], the inhibition at 25 µM in assay [1] turned out to be 28%.

`CCCCOC(=O)[C@@H](NC(=O)[C@H](CC(=O)O)NC(=O)CN(C)C(=O)CCCCCNC(=N)N)C(C)C` [6-Guanidinohexanoyl-sarcosyl-L-aspartyl-L-valine-butylester]: in assay [1], the 50% inhibitory concentration (IC50) was 4.5 µM and the inhibition at 25 µM is 90%.

As to `CCC(C)C(CNC(=O)[C@H](CC(=O)O)NC(=O)CCCCCCCCNC(=N)N)C(=O)N[C@@H](CCCNC(=N)N)C(=O)O` (stereo partly drawn) [N-(9-Guanidinononanoyl-L-aspartyl)-3-amino-2-sec-butyl propionic acid L-arginine amide], the inhibition at 25 µM in assay [1] was found to be 89%. For `CCCCOC(=O)C[C@H](NC(=O)CN(C)C(=O)CCCCCNC(=N)N)C(=O)N[C@H](C(=O)O)C(C)C` [6-Guanidinohexanoyl-sarcosyl-L-aspartyl-β-butylester-L-valine], in assay [1], the IC50 was greater than 25 µM and the inhibition at 25 µM came out at 18%. `CCC(C)C[C@H](NC(=O)[C@H](CC(=O)O)NC(=O)CCCCCCCCNC(=N)N)C(=O)N[C@@H](CCCNC(=N)N)C(=O)O` (stereo partly drawn) [9-Guanidinononanoyl-L-aspartyl-homo-L-isoleucyl-L-arginine]: the inhibition at 25 µM in assay [1] came out at 94%. Same read-out and setting: in the case of `CCC(C)[C@H](CCCNC(=N)N)NC(=O)[C@H](CC(=O)O)NC(=O)CCCCCCCCNC(=N)N` (stereo partly drawn) [9-Guanidinononanoyl-L-aspartyl-((S)-4-amino-4-sec-butylbutyl)guanidine] it was 76%. In the case of `CC(C)[C@H](NC(=O)[C@H](CC(=O)O)N(C)C(=O)CNC(=O)[C@@H](N)CCCNC(=N)N)C(=O)O` [L-arginyl-glycyl-L-N-methylaspartyl-L-valine] (H-RG[NMeD]V-OH), the IC50 in assay [1] was greater than 64 µM.

For `CC(C)(C)[C@H](NC(=O)[C@H](CC(=O)O)NC(=O)CCCCCCCCNC(=N)N)C(=O)N[C@@H](CCCNC(=N)N)C(=O)O` [9-Guanidinononanoyl-L-aspartyl-L-t-butylglycyl-L-arginine], in assay [1], the half-inhibitory concentration (IC50) was found to be 1.5 µM and the inhibition at 25 µM was determined as 96%. On the same counts, the results for `CC(C)CC(CCCN)(NC(=O)[C@H](CC(=O)O)NC(=O)CCCCCCCCNC(=N)N)C(=O)O` (stereo partly drawn) [9-Guanidinononanoyl-L-aspartyl-(R,S)-α-isobutylornithine] are greater than 25 µM and 4%. With `CC[C@H](C)[C@H](NC(=O)[C@@H](NC(=O)[C@H](CC(=O)O)NC(=O)CCCCCCCCNC(=N)N)[C@@H](C)CC)C(=O)O` [9-Guanidinononanoyl-L-aspartyl-L-isoleucyl-L-isoleucine], in assay [1], the half-maximal inhibitory concentration (IC50) is greater than 25 µM and the inhibition at 25 µM came out at 45%. On to `CC(C)[C@H](NC(=O)[C@H](CC(=O)O)NC(=O)CN(C)C(=O)CCCCCn1ccnc1)C(=O)O` [6-(Imidazol-1-yl)-hexanoylsarcosyl-L-aspartyl], for which, in assay [1], the inhibition at 25 µM was 94%.

Take `Cc1nccn1CCCCCCCCC(=O)N[C@@H](CC(=O)O)C(=O)N[C@H](C(=O)O)C(C)C`: in assay [1], the inhibition at 25 µM worked out at 74%. For `COC(=O)[C@H](CCCNC(=N)N)NC(=O)[C@H](CC(=O)O)NC(=O)CCCCCCCCNC(=N)N` [9-Guanidinononanoyl-L-aspartyl-L-arginine methylester], in assay [1], the IC50 worked out at 1.7 µM and the inhibition at 25 µM worked out at 91%. On to `CC(C)C[C@@H](CCCNC(=N)N)NC(=O)[C@H](CC(=O)O)NC(=O)CCCCCCCCNC(=N)N` [(R)-4-[N-(9-Guanidinononanoyl-L-aspartyl)-amino]-4-isobutylbutylguanidine], for which the inhibition at 25 µM in assay [1] amounted to 94%. For `N=C(N)NCCCCCCCC(=O)NCC(=O)NCC(=O)O` [8-Guanidinooctanoyl-glycyl-glycine], the inhibition at 25 µM in assay [1] came to 12%.

As usually defined, the IC50 is the concentration that gives 50% inhibition. For orientation: inhibition means the change of the read-out against control, counted positive when it falls.
